Patent US9611301B2, “GB virus C (hepatitis G virus) E2 glycoprotein as an immunomodulatory agent” (priority 2012, dated 2017)
Where no end group is shown, it is not given here.

How the values were obtained:
Lck = target: T1, Lck (Homo sapiens, UniProt P06239); experiment: Lck mediated phosphorylation of TAT-peptides (Lck kinase enzyme system); assay type: biochemical; conditions: in vitro
T1 construct: purchased Promega
Method: CD45 activity was measured using CD45 tyrosine phosphatase assay kit (Enzo Life Sciences) following the manufacturer's instructions. Purified recombinant GBV-C E2 protein expressed in CHO cells was described previouslyl^2. Enzymatic activity was evaluated with or without GBV-C E2 protein (10 μg) or human IgG control (10 μg; Sigma) at room temperature. Following 1 hour incubation, the reaction was terminated and absorbance determined by a Microplate reader (Model 680, Bio-Rad) at OD620nm. Phosphorylation of GBV-C E2 protein by Lck was measured by incubating recombinant E2 protein (40 μg) with or without human Lck ([…]; R&D Systems) as recommended by the manufacturer. Samples were subjected to immunoblot analysis as described above. Phosphorylation was determined by immunoblot analysis with phosphotyrosine antibodies (Invitrogen) and GBV-C E2 protein was identified using an anti-E2 monoclonal antibody. Lck mediated phosphorylation of GBV-C E2 derived TAT-peptides were performed using Lck kinase enzyme system (Promega) as recommended by the manufacturer.

Healthy donors PBMCs = experiment: IL-2 production by PBMCs incubated with synthetic TAT peptides, anti-CD3/CD28 stimulation; assay type: cell-based, human; conditions: 20 μg peptide over night, anti-CD3/CD28 500 ng/ml, 24 hrs
Text: pLAT (Y191) was quantified using PathScan ELISA kit (Cell Signaling Technology) and IL-2 cytokine released into cell culture supernatant was quantified using human IL-2 quantikine ELISA kit (R&D Systems) according to manufacturer's instructions.
(§1) FITC labelled synthetic peptides with an N-terminal HIV TAT protein transduction domain (TAT) alone (GGGGGRKKRRQRRR; SEQ ID NO: 13), or with the GBV-C E2 aa 86-101 ([…]; SEQ ID NO: 14; Y87), or the Y87H mutation ([…]; SEQ ID NO: 15) were obtained from Ana Spec, Inc. Peptides with the TAT domain and GBV-C E2 aa 276-292 (GGAGLTGGRYEPLVRRC; SEQ ID NO: 16), or the same amino acids in a scrambled order (GCRCARGVLLTPGEGYF; SEQ ID NO: 17) as previously described^28. Peptides were dissolved in RPMI with 10% DMSO. The TAT domain enhances cellular uptake of the peptide. Healthy donors PBMCs (1×10^6 cells/ml) were incubated with 20 μg peptide at 37° C. over night before stimulation with 500 ng/ml anti-CD3/CD28. IL-2 release and cellular receptor expression was analyzed 24 hrs later.

[1] = tested on: primary human CD4+ and CD8+ T cells; experiment: CD69 and CD25 surface expression on CD4+ and CD8+ T cells incubated with synthetic TAT peptides; assay type: cell-based; conditions: compared to mutant or control peptide
Method: Cellular receptor expression was measured using the following antibodies per manufacturer's recommendation: CD69 (PE), CD25 (APC), CD45 (PE) (BD Biosciences). Cells were incubated on ice for 1 hour, washed 3 times with PBS and fixed in 2% paraformaldehyde (Polysciences). Data was acquired on BD LSR II flow cytometer using single stained CompBeads (BD Biosciences) for compensation. At least 10,000 total events were collected in each experiment and the FlowJo program (Tree Star Inc.) was used for data analysis. All flow cytometry experiments were repeated at least three times with consistent results.
as §1

T1 sequence (P06239 whole entry, species assumed): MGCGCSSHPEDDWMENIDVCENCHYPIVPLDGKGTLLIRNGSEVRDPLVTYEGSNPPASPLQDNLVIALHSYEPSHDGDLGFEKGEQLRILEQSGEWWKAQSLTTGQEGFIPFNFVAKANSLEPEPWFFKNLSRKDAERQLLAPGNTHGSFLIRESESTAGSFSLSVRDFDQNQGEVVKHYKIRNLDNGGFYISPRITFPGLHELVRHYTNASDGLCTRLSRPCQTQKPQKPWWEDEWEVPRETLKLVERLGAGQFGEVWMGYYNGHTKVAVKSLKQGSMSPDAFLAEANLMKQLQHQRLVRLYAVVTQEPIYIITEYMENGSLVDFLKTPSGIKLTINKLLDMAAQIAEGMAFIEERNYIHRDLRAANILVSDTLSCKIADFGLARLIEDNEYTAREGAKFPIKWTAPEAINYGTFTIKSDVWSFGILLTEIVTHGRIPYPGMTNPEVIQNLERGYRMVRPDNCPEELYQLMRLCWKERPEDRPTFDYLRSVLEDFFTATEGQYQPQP

## GGAGLTGGRYEPLVRRC [TAT-276-292]
Lck
  Lck mediated phosphorylation of peptide (Lck substrate): served as a Lck substrate in vitro

## GGGGGRKKRRQRRR (also: FITC label, site not given here) [TAT control, HIV TAT protein transduction domain alone; negative control, reference compound]
Healthy donors PBMCs
  IL-2 production: not

## GGGGGRKKRRQRRRVHGSVSVTCVWGS (also: FITC label, site not given here) [TAT-Y87H, TAT peptide with the Y87H mutation]
Healthy donors PBMCs
  IL-2 production: not

## GGGGGRKKRRQRRRVYGSVSVTCVWGS (also: FITC label, site not given here) [TAT-Y87, synthetic peptide, N-terminal HIV TAT protein transduction domain with GBV-C E2 aa 86-101]
[1]
  surface expression of CD25: significantly reduced
  surface expression of CD69: significantly reduced
Healthy donors PBMCs
  IL-2 production: inhibited
Lck
  Lck mediated phosphorylation of peptide (Lck substrate): phosphorylated by Lck in a dose-dependent manner
